According to publication doi:10.1101/2025.04.10.648175v1 (biorxiv, 2025):

Columns and labels:
AzoTag16 = test: isothermal titration calorimetry; format: binding; settings: 20 mM HEPES-NaOH, 150 mM NaCl, pH 7.5, 25 °C, 0.8% DMSO; one-site model
AzoTag1 = test: isothermal titration calorimetry; format: binding; settings: 20 mM HEPES-NaOH, 150 mM NaCl, pH 7.5, 25 °C, 0.5% DMSO; one-site model

Compound: CNC(=O)COCCOCCNC(=O)c1cc(F)c(/N=N\c2c(F)cc(C(=O)NCCC(=O)O)cc2F)c(F)c1 [compound 2, cis-Ca-FAzo]
- Kd (AzoTag16): 14.03 ± 0.02 nM

Compound: CCNC(=O)c1cc(F)c(/N=N\c2c(F)cc(C(=O)NCCOCCOCC(=O)NC)cc2F)c(F)c1 [compound 1, cis-Et-FAzo]
- Kd (AzoTag1): 805 ± 22.6 nM
